# Results as given in PubChem BioAssay AID1963451 (Molecular Pharmacology Branch, DTP, NCI, 2024).
# Several values for one entry are separate records, joined by “and”; a condition that tells them apart may be missing. Identical values can stand only once.
# Tested on: 521955-158-R6-J3-PDC complex spheroid growth, % test/control
# Assay: Anticancer human tumor 521955-158-R6-J3-PDC patient-derived pancreatic carcinoma cell line growth inhibition [Asc]
# Details: for viability, T/C: stronger effect = lower value
# Procedure: Multicellular complex tumor spheroid response to apoptosis pathway targeting inhibitors Alrizomadlin, Pelcitoclax, and Dasminapant in combination with a variety of drugs and investigational agents in selected tumor cell lines
# The MDM2 inhibitor alrizomadlin, the Bcl-2/Bcl-xL inhibitor pelcitoclax, and the IAPs inhibitor dasminapant were evaluated both individually and in combination with standard of care and investigational anticancer small molecules within a complex spheroid model of solid tumors. . Complex spheroids include a stromal component modeled by human endothelial cells (HUVEC) and fibroblasts modeled by human mesenchymal stem cells (MSCs). The concentration ranges selected for each drug and investigational agent were based upon clinically achievable concentrations if the clinical Cmax of the agent was known.
# Compounds. The drugs and investigational agents: alrizomadlin (APG-115; NSC831270), pelcitoclax (APG-1252; NSC835773), dasminapant (APG-1387;NSC834197), TAK-243 (NSC785004), copanlisib (NSC809693), olaparib (NSC753686), talazoparib (NSC767125), cobimetinib (NSC 768068), eltanexor (KPT-8602, NSC 794443), abemaciclib (NSC 768073), sotorasib (NSC818433), adagrasib (NSC 831453), MRTX-1133 (NSC 836407), Iadademestat (ORY1001, NSC 806812), and RMC-4630 (NSC839698), were obtained from the NCI Developmental Therapeutics Program Chemical Repository. The FDA-approved anticancer drug set is available from the Developmental Therapeutics Program at https://dtp.cancer.gov/organization/dscb/obtaining/available plates.htm. […] The stock solutions were prepared in dimethyl sulfoxide (DMSO, Sigma-Aldrich, St. Louis, MO, cat. D2650) at 800-fold the tested concentration and stored at -70 degrees C prior to their use. All drugs and investigational agents were tested over a range starting from a high concentration at or near the clinical Cmax and decreasing in half-log increments. If the clinical Cmax for an agent had not been determined, the highest concentration tested was 10 microM.
# The patient-derived cancer (PDC) cell lines include five colon adenocarcinomas: 186277-243-T-J2-PDC, 616215-338-R-J1-PDC, 439559-082-T-J2-PDC, 463943-066-T-J2-PDC, and 519858-162-T-J1-PDC; three pancreatic carcinomas: 323965-272-R-J2-PDC, 521955-158-R6-J3-PDC, and 521955-158-R2-J5-PDC; two uterine sarcomas: 327498-152-R-J2-PDC and 993429-296-R-J1-PDC; two rhabdomyosarcomas: 755483-174-R-J1-PDC and 772245-204-R-J1-PDC; two soft tissue sarcomas: 126254-015-R-J1-PDC and 494315-158-R-J1-PDC; two malignant fibrous histiocytomas: 317291-083-R-J1-PDC and 596521-263-R-J1-PDC; two breast carcinomas: 171881-019-R-J1-PDC and 885512-296-R-J2-PDC; and one ovarian carcinoma: 6556581-035-R-J-PDC were obtained from the NCI PDMR, (https://pdmr.cancer.gov). The established cell lines HSSY-2 synovial sarcoma (RRID:CVCL 8719), SYO-1 synovial sarcoma (RRID:CVCL_7146), MPNST malignant peripheral neural sheath tumor were obtained from the Sloan Kettering Institute. The following established cell lines were purchased from the American Type Culture Collection (ATCC, Manassas, VA), Sor the received from the NCI repository:, PANC-1 pancreatic carcinoma (CRL-1469, RRID:CVCL_0480), OVCAR-5 ovarian carcinoma (RRID:CVCL_1628), OVCAR-8 ovarian carcinoma (RRID:CVCL_1629), , MCF-7 breast carcinoma (CRL-12584, RRID:CVCL_0031), MDA-MB-231 breast carcinoma (CRL-12532, RRID:CVCL_0062), NCI-H1876 small cell lung carcinoma (CRL-5902, RRID:CVCL_1503), NCI-H510A small cell lung carcinoma (HTB-184, RRID:CVCL_1565), NCI-H1417 (CRL-5869, RRID:CVCL_1469), and NCI-H196 small cell lung carcinoma (CRL-5823, RRID:CVCL_1509). Dr. Peter Houghton (Greehey Children's Cancer Research Institute, University of Texas Health Science Center, San Antonio, TX) provided Rh-18 rhabdomyosarcoma (RRID:CVCL_1659). Pooled donor human umbilical vein endothelial cells (HUVEC, Lonza, cat. CC-2519) and human mesenchymal stem cells (hMSC, Lonza, cat. PT-2501) were purchased from Lonza (Walkersville, MD).
# Cell Culture. […]
# [1] = curve of first compound, second compound 0.0316 µM
# [2] = curve of first compound, second compound 0.1 µM
# [3] = curve of first compound, second compound 0.316 µM
# [4] = curve of first compound, second compound 1 µM
# [5] = curve of first compound, second compound 3.16 µM
# [6] = curve of first compound, second compound 10 µM
# [7] = second compound 0.0316 µM, first compound 0.00316 µM
# [8] = second compound 0.0316 µM, first compound 0.01 µM
# [9] = second compound 0.0316 µM, first compound 0.0316 µM
# [10] = second compound 0.0316 µM, first compound 0.1 µM
# [11] = second compound 0.0316 µM, first compound 0.316 µM
# [12] = second compound 0.0316 µM, first compound 1 µM
# [13] = second compound 0.1 µM, first compound 0.00316 µM
# [14] = second compound 0.1 µM, first compound 0.01 µM
# [15] = second compound 0.1 µM, first compound 0.0316 µM
# [16] = second compound 0.1 µM, first compound 0.1 µM
# [17] = second compound 0.1 µM, first compound 0.316 µM
# [18] = second compound 0.1 µM, first compound 1 µM
# [19] = second compound 0.316 µM, first compound 0.00316 µM
# [20] = second compound 0.316 µM, first compound 0.01 µM
# [21] = second compound 0.316 µM, first compound 0.0316 µM
# [22] = second compound 0.316 µM, first compound 0.1 µM
# [23] = second compound 0.316 µM, first compound 0.316 µM
# [24] = second compound 0.316 µM, first compound 1 µM
# [25] = second compound 1 µM, first compound 0.00316 µM
# [26] = second compound 1 µM, first compound 0.01 µM
# [27] = second compound 1 µM, first compound 0.0316 µM
# [28] = second compound 1 µM, first compound 0.1 µM
# [29] = second compound 1 µM, first compound 0.316 µM
# [30] = second compound 1 µM, first compound 1 µM
# [31] = second compound 3.16 µM, first compound 0.00316 µM
# [32] = second compound 3.16 µM, first compound 0.01 µM
# [33] = second compound 3.16 µM, first compound 0.0316 µM
# [34] = second compound 3.16 µM, first compound 0.1 µM
# [35] = second compound 3.16 µM, first compound 0.316 µM
# [36] = second compound 3.16 µM, first compound 1 µM
# [37] = second compound 10 µM, first compound 0.00316 µM
# [38] = second compound 10 µM, first compound 0.01 µM
# [39] = second compound 10 µM, first compound 0.0316 µM
# [40] = second compound 10 µM, first compound 0.1 µM
# [41] = second compound 10 µM, first compound 0.316 µM
# [42] = second compound 10 µM, first compound 1 µM
# 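Further: spheroids exposed to compounds for 7 days.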
# 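Wherever viability, T/C is given: 100% = DMSO vehicle control wells.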
compound,measurement,setting,value
Cc1c(S(C)(=O)=O)c(-c2cc(F)cc(N3CCN(c4ccc(NS(=O)(=O)c5ccc(NC(CCN6CCC(C(=O)OCCCP(=O)(O)O)CC6)CSc6ccccc6)c(S(=O)(=O)C(F)(F)F)c5)cc4)CC3)c2)c(-c2ccc(Cl)cc2)n1C(C)C (stereo not drawn),"viability, T/C",compound 0.0316 µM,77.2% [middle of 7 runs]
same,"viability, T/C",compound 0.1 µM,71.5% [middle of 7 runs]
same,"viability, T/C",compound 0.316 µM,54% [middle of 7 runs]
same,"viability, T/C",compound 1 µM,37.2% [middle of 7 runs]
same,"viability, T/C",compound 3.16 µM,23.6% [middle of 7 runs]
same,"viability, T/C",compound 10 µM,18.2% [middle of 7 runs]
same,IC50,"compound alone, run of 11/07/2022",412 nM [middle of 7 runs]
O=C(c1cc(Cc2n[nH]c(=O)c3ccccc23)ccc1F)N1CCN(C(=O)C2CC2)CC1,"viability, T/C",compound 0.0316 µM,103% and 91.4% and 91.6%
same,"viability, T/C",compound 0.1 µM,92.6% and 93.9% and 101%
same,"viability, T/C",compound 0.316 µM,100% and 101% and 87.3%
same,"viability, T/C",compound 1 µM,108% and 101% and 91.8%
same,"viability, T/C",compound 3.16 µM,98.8% and 94.8% and 124%
same,"viability, T/C",compound 10 µM,98.6% and 78.8% and 86.5%
same,IC50,curve of compound,> 10000 nM
CNC(C)C(=O)NC1CN(S(=O)(=O)c2cccc(S(=O)(=O)N3CCC4CCC(C(=O)NC(c5ccccc5)c5ccccc5)N4C(=O)C(NC(=O)C(C)NC)C3)c2)CCC2CCC(C(=O)NC(c3ccccc3)c3ccccc3)N2C1=O (stereo not drawn) + Cc1c(S(C)(=O)=O)c(-c2cc(F)cc(N3CCN(c4ccc(NS(=O)(=O)c5ccc(NC(CCN6CCC(C(=O)OCCCP(=O)(O)O)CC6)CSc6ccccc6)c(S(=O)(=O)C(F)(F)F)c5)cc4)CC3)c2)c(-c2ccc(Cl)cc2)n1C(C)C,IC50,[1],> 1000 nM
same,IC50,[2],> 1000 nM
same,IC50,[3],5.02 nM
same,IC50,[4],< 3.16 nM
same,IC50,[5],< 3.16 nM
same,IC50,[6],< 3.16 nM
same,"viability, T/C",[7],101%
same,"viability, T/C",[8],90.1%
same,"viability, T/C",[9],80.1%
same,"viability, T/C",[10],72.5%
same,"viability, T/C",[11],67.3%
same,"viability, T/C",[12],60.4%
same,"viability, T/C",[13],93.4%
same,"viability, T/C",[14],64.7%
same,"viability, T/C",[15],57.1%
same,"viability, T/C",[16],56.4%
same,"viability, T/C",[17],51.4%
same,"viability, T/C",[18],55.4%
same,"viability, T/C",[19],57.3%
same,"viability, T/C",[20],38.4%
same,"viability, T/C",[21],42.8%
same,"viability, T/C",[22],39.4%
same,"viability, T/C",[23],35.7%
same,"viability, T/C",[24],35.5%
same,"viability, T/C",[25],31.6%
same,"viability, T/C",[26],23.8%
same,"viability, T/C",[27],29.6%
same,"viability, T/C",[28],19.9%
same,"viability, T/C",[29],25.4%
same,"viability, T/C",[30],21.1%
same,"viability, T/C",[31],14.6%
same,"viability, T/C",[32],13%
same,"viability, T/C",[33],16.9%
same,"viability, T/C",[34],14.1%
same,"viability, T/C",[35],12.3%
same,"viability, T/C",[36],13.3%
same,"viability, T/C",[37],10.6%
same,"viability, T/C",[38],12%
same,"viability, T/C",[39],8.73%
same,"viability, T/C",[40],9.27%
same,"viability, T/C",[41],10.4%
same,"viability, T/C",[42],6.75%
O=C(c1ccc(F)c(F)c1Nc1ccc(I)cc1F)N1CC(O)([C@@H]2CCCCN2)C1 + Cc1c(S(C)(=O)=O)c(-c2cc(F)cc(N3CCN(c4ccc(NS(=O)(=O)c5ccc(NC(CCN6CCC(C(=O)OCCCP(=O)(O)O)CC6)CSc6ccccc6)c(S(=O)(=O)C(F)(F)F)c5)cc4)CC3)c2)c(-c2ccc(Cl)cc2)n1C(C)C,IC50,[1],257 nM
same,IC50,[2],166 nM
same,IC50,[3],< 3.16 nM
same,IC50,[4],< 3.16 nM
same,IC50,[5],< 3.16 nM
same,IC50,[6],< 3.16 nM
same,"viability, T/C",[7],78.6%
same,"viability, T/C",[8],83.5%
same,"viability, T/C",[9],97.3%
same,"viability, T/C",[10],85%
same,"viability, T/C",[11],42.2%
same,"viability, T/C",[12],26.7%
same,"viability, T/C",[13],79.8%
same,"viability, T/C",[14],69.1%
same,"viability, T/C",[15],84.2%
same,"viability, T/C",[16],59.5%
same,"viability, T/C",[17],35.3%
same,"viability, T/C",[18],17.9%
same,"viability, T/C",[19],47.8%
same,"viability, T/C",[20],46.7%
same,"viability, T/C",[21],43.1%
same,"viability, T/C",[22],36.8%
same,"viability, T/C",[23],20.2%
same,"viability, T/C",[24],5.24%
same,"viability, T/C",[25],35.3%
same,"viability, T/C",[26],39.4%
same,"viability, T/C",[27],29.7%
same,"viability, T/C",[28],20.5%
same,"viability, T/C",[29],6.12%
same,"viability, T/C",[30],1.37%
same,"viability, T/C",[31],19.1%
same,"viability, T/C",[32],25%
same,"viability, T/C",[33],19.6%
same,"viability, T/C",[34],6.55%
same,"viability, T/C",[35],1.36%
same,"viability, T/C",[36],0.4%
same,"viability, T/C",[37],14.6%
same,"viability, T/C",[38],11.5%
same,"viability, T/C",[39],7.74%
same,"viability, T/C",[40],3.48%
same,"viability, T/C",[41],1.23%
same,"viability, T/C",[42],2.45%
